Measurements from patent US7109186B2 (Bristol-Myers Squibb Company, priority 2002, dated 2006).

Tests used:
HIV-integrase = molecular target: T1, HIV-integrase (Human immunodeficiency virus type 1 group M subtype B, UniProt P04585); test: HIV integrase SPA integration assay (biotin-labeled substrate DNA on streptavidin SPA beads, P33-labeled target DNA); format: biochemical; details: percent inhibition of HIV-integrase in the presence of 20 μM of compound
T1 construct: 0.26 ng of recombinant integrase was incubated with the beads for 90 min at 37 C
Procedure: For each reaction, 5 pmole of biotin labeled substrate DNA was bound to 100 ug of Streptavidin coated PVT SPA beads (Amersham Pharmacia Biotech). 0.26 ng of recombinant integrase was incubated with the beads for 90 min at 37 C. Unbound enzyme was removed by washing the complex followed by addition of inhibitors and 0.1 fmol of P33 labeled target DNA. Reaction was stopped by adding EDTA to a final concentration of 10 mM. Samples were counted in TopCountNXT (Packard) and the CPM was used as a measure of integration. Reaction condition was as described in A. Engelman and R. Craigie, J. Virol. 69, 5908–5911 (1995). The sequences of substrate and target DNA were described in Nucleic Acid Research 22, 1121–1122 (1994).

| Compound | melting point | inhibition at 20 µM (HIV-integrase) |
| --- | --- | --- |
| CCON(Cc1ccc(F)cc1)C(=O)C1=C(O)C(=O)N(C)C1 [Compound 53, 4-Hydroxy-1-methyl-5-oxo-2,5-dihydro-1H-pyrrole-3-carboxylic acid ethoxy-(4-fluoro-benzyl)-amide] | 113 to 114 °C | 99% |
| CN1CC(C(=O)N(Cc2ccc(F)cc2)c2ccc(Cl)c(Cl)c2)=C(O)C1=O [Compound 78, 4-Hydroxy-1-methyl-5-oxo-2,5-dihydro-1H-pyrrole-3-carboxylic acid (3,4-dichloro-phenyl)-(4-fluoro-benzyl)-amide] | 195 °C (dec.) | 99.9% |
| CN(C)C(=O)CON(Cc1ccc(F)cc1)C(=O)C1=C(O)C(=O)N(C)C1 [Compound 72, 4-Hydroxy-1-methyl-5-oxo-2,5-dihydro-1H-pyrrole-3-carboxylic acid dimethylcarbamoylmethoxy-(4-fluoro-benzyl)-amide] | 147 to 149 °C | 98.8% |
| CON(Cc1cccc(F)c1)C(=O)C1=C(O)C(=O)N(C)C1 [Compound 49, 4-Hydroxy-1-methyl-5-oxo-2,5-dihydro-1H-pyrrole-3-carboxylic acid (3-fluoro-benzyl)-methoxy-amide] | 119 °C (dec.) | 98.5% |
| CON(Cc1ccc(C)cc1)C(=O)C1=C(O)C(=O)N(C)C1 [Compound 59, 4-Hydroxy-1-methyl-5-oxo-2,5-dihydro-1H-pyrrole-3-carboxylic acid methoxy-(4-methyl-benzyl)-amide] | 150 to 152 °C | 99.9% |
| CON(Cc1ccc(Cl)cc1)C(=O)C1=C(O)C(=O)N(C)C1 [Compound 51, 4-Hydroxy-1-methyl-5-oxo-2,5-dihydro-1H-pyrrole-3-carboxylic acid (4-chloro-benzyl)-methoxy-amide] | 165 °C (dec.) | 99.9% |
| CON(Cc1ccc(C#N)cc1)C(=O)C1=C(O)C(=O)N(C)C1 [Compound 62, 4-Hydroxy-1-methyl-5-oxo-2,5-dihydro-1H-pyrrole-3-carboxylic acid (4-cyano-benzyl)-methoxy-amide] | 161 °C (dec.) | 97.7% |
| CN(Cc1ccc(Cl)c(Cl)c1)C(=O)C1=C(O)C(=O)N(CCC(=O)O)C1 [Compound 18, 3-[4-[(3,4-dichloro-benzyl)-methyl-carbamoyl]-3-hydroxy-2-oxo-2,5-dihydro-pyrrol-1-yl]-propionic acid] | 183 to 184 °C | 99.9% |
| CON(Cc1ccc(C)c(F)c1)C(=O)C1=C(O)C(=O)N(C)C1 [Compound 65, 4-Hydroxy-1-methyl-5-oxo-2,5-dihydro-1H-pyrrole-3-carboxylic acid (3-fluoro-4-methyl-benzyl)-methoxy-amide] | 145 °C | 99.9% |
| CN1CC(C(=O)N(C)C(Cc2ccc(Cl)cc2)Cc2ccc(Cl)cc2)=C(O)C1=O [Compound 75, 4-Hydroxy-1-methyl-5-oxo-2,5-dihydro-1H-pyrrole-3-carboxylic acid [1-(4-chloro-benzyl)-2-(4-chloro-phenyl)-ethyl]-methyl-amide] | 152 to 154 °C | 96.5% |
| CN(Cc1ccc(Cl)c(Cl)c1)C(=O)C1=C(O)C(=O)N(CC(=O)O)C1 [Compound 20, {4-[(3,4-Dichloro-benzyl)-methyl-carbamoyl]-3-hydroxy-2-oxo-2,5-dihydro-pyrrol-1-yl}-acetic acid] | 178 to 180 °C | 99.9% |
| CN1CC(C(=O)N(Cc2ccc(F)cc2)OCC(=O)OC(C)(C)C)=C(O)C1=O [Compound 70] | 128 to 130 °C | 99.8% |
| CON(Cc1ccc(F)cc1Cl)C(=O)C1=C(O)C(=O)N(C)C1 [Compound 74, 4-Hydroxy-1-methyl-5-oxo-2,5-dihydro-1H-pyrrole-3-carboxylic acid (2-chloro-4-fluoro-benzyl)-methoxy-amide] | 152 to 155 °C | 97.8% |
| CC(C)CON(Cc1ccc(F)cc1)C(=O)C1=C(O)C(=O)N(C)C1 [Compound 58, 4-Hydroxy-1-methyl-5-oxo-2,5-dihydro-1H-pyrrole-3-carboxylic acid (4-fluoro-benzyl)-isobutoxy-amide] | 96 to 97 °C | 99.5% |
| COc1ccc(CN(OC)C(=O)C2=C(O)C(=O)N(C)C2)cc1 [Compound 55, 4-Hydroxy-1-methyl-5-oxo-2,5-dihydro-1H-pyrrole-3-carboxylic acid methoxy-(4-methoxy-benzyl)-amide] | 135 to 137 °C | 99.9% |
| CN1CC(C(=O)N(Cc2ccc(F)cc2)OCC(=O)O)=C(O)C1=O [Compound 71, [(4-Fluoro-benzyl)-(4-hydroxy-1-methyl-5-oxo-2,5-dihydro-1H-pyrrole-3-carbonyl)-aminooxy]-acetic acid] | 147 to 150 °C | 99.9% |
| CON(Cc1ccc(C(=O)O)cc1)C(=O)C1=C(O)C(=O)N(C)C1 [Compound 68, 4-{[(4-Hydroxy-1-methyl-5-oxo-2,5-dihydro-1H-pyrrole-3-carbonyl)-methoxy-amino]-methyl}-benzoic acid] | 196 to 197 °C | 12% |
| CON(Cc1ccc(NC(C)=O)cc1)C(=O)C1=C(O)C(=O)N(C)C1 [Compound 63, 4-Hydroxy-1-methyl-5-oxo-2,5-dihydro-1H-pyrrole-3-carboxylic acid (4-acetylamino-benzyl)-methoxy-amide] | 110 °C | 12% |
| CON(Cc1ccccc1C)C(=O)C1=C(O)C(=O)N(C)C1 [Compound 56, 4-Hydroxy-1-methyl-5-oxo-2,5-dihydro-1H-pyrrole-3-carboxylic acid methoxy-(2-methyl-benzyl)-amide] | 153 to 154 °C | 88% |
| CON(Cc1ccccc1F)C(=O)C1=C(O)C(=O)N(C)C1 [Compound 50, 4-Hydroxy-1-methyl-5-oxo-2,5-dihydro-1H-pyrrole-3-carboxylic acid (2-fluoro-benzyl)-methoxy-amide] | 147 °C (dec.) | 92% |
| CON(C(=O)C1=C(O)C(=O)N(C)C1)C(C)c1ccc(F)cc1 (stereo not shown) [Compound 69, 4-Hydroxy-1-methyl-5-oxo-2,5-dihydro-1H-pyrrole-3-carboxylic acid [1-(4-fluoro-phenyl)-ethyl]-methoxy-amide] | 136 to 138 °C | 97% |
| CON(Cc1ccc(F)c(C)c1)C(=O)C1=C(O)C(=O)N(C)C1 [Compound 64, 4-Hydroxy-1-methyl-5-oxo-2,5-dihydro-1H-pyrrole-3-carboxylic acid (4-fluoro-3-methyl-benzyl)-methoxy-amide] | 160 to 164 °C | 99.7% |
| CON(Cc1ccc(F)c(Br)c1)C(=O)C1=C(O)C(=O)N(C)C1 [Compound 57, 4-Hydroxy-1-methyl-5-oxo-2,5-dihydro-1H-pyrrole-3-carboxylic acid (3-bromo-4-fluoro-benzyl)-methoxy-amide] | 154 to 157 °C (dec.) | 99.9% |
